In ChEMBL document CHEMBL4680243, “N-benzyl 4,4-disubstituted piperidines as a potent class of influenza H1N1 virus inhibitors showing a novel mechanism of hemagglutinin fusion peptide interaction” (Eur J Med Chem, 2020):
Calls of active or inactive are those of the source. The rule behind the calls is not given here.

Columns and labels:
Influenza A virus [1] = assay: Antiviral activity against Influenza A virus (A/PR 8/34 (H1N1)) infected in MDCK cells assessed as reduction in virus-induced cytopathic effect measured after 72 hrs by MTS assay; type: functional, organism-based; conditions: A/Puerto Rico/8/1934(H1N1)
Influenza A virus [2] = assay: Antiviral activity against Influenza A virus (A/PR 8/34 (H1N1)) clone 1 infected in MDCK cells assessed as reduction in virus-induced cytopathic effect measured after 72 hrs by MTS assay; type: functional, organism-based; conditions: A/Puerto Rico/8/1934(H1N1)
Influenza A virus [3] = assay: Antiviral activity against Influenza A virus (A/PR 8/34 (H1N1)) clone 1 infected in MDCK cells assessed as reduction in virus-induced cytopathic effect measured after 72 hrs by microscopic analysis; type: functional, organism-based; conditions: A/Puerto Rico/8/1934(H1N1)
[4] = Cytotoxicity against MDCK cells assessed as reduction in cell viability measured after 72 hrs by MTS assay; type: cell-based, Canis lupus familiaris; conditions: dog
Influenza A virus [5] = assay: Antiviral activity against Influenza A virus (A/PR 8/34 (H1N1)) infected in MDCK cells assessed as reduction in virus-induced cytopathic effect measured after 72 hrs by microscopic analysis; type: functional, organism-based; conditions: A/Puerto Rico/8/1934(H1N1)
[6] = Cytotoxicity against MDCK cells assessed as change in cell morphology measured after 72 hrs by microscopic analysis; type: cell-based, Canis lupus familiaris; conditions: dog
[7] = molecular target: T1, Transmembrane protease serine 11D (Homo sapiens) (UniProt O60235); assay: Inhibition of recombinant human N-terminal His-tagged HAT (Ala42 to Ile418 residues) expressed in mouse NSO cells using Boc-Gln-Ala-Arg-AMC as substrate preincubated for 15 mins followed by substrate addition and measured for 60 mins by fluorescence assay; conditions: time 75.0 min
T1 sequence (whole entry): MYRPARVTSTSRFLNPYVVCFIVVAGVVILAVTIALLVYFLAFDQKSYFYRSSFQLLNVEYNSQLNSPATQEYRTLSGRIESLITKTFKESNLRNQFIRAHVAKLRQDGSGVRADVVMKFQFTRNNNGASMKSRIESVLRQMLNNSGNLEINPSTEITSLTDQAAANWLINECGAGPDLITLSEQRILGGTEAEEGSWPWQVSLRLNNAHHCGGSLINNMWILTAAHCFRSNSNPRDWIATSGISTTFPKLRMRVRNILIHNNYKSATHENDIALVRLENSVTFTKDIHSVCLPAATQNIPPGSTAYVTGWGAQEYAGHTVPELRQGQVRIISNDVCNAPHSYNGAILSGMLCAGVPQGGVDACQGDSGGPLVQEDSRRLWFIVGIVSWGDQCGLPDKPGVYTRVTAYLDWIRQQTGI

[8] = molecular target: Cathepsin B (Homo sapiens) (UniProt P07858); assay: Inhibition of human liver cathepsin B using Z-Phe-Arg-AMC as substrate preincubated for 15 mins followed by substrate addition and measured for 60 mins by fluorescence assay; conditions: time 75.0 min
[9] = Selectivity index, ratio of CC50 for MDCK cells to EC50 for antiviral activity against Influenza A virus (A/Puerto Rico/8/1934(H1N1)) infected in MDCK cells; type: toxicity, cell-based; conditions: dog, read-out: Ratio CC50/EC50
[10] = molecular target: Procathepsin L (Homo sapiens) (UniProt P07711); assay: Inhibition of human liver cathepsin L using Z-Phe-Arg-AMC as substrate preincubated for 15 mins followed by substrate addition and measured for 60 mins by fluorescence assay; conditions: time 75.0 min
Chain of Procathepsin L (Homo sapiens) (P07711 114-333 limits assumed): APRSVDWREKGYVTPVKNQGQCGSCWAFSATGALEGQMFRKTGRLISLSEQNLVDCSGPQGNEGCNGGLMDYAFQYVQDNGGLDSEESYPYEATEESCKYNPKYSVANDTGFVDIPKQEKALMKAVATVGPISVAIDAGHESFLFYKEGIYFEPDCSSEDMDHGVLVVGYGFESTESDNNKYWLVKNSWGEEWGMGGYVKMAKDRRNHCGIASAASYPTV

[11] = molecular target: T2, Cathepsin F (Homo sapiens) (UniProt Q9UBX1); assay: Inhibition of recombinant human cathepsin F expressed in baculovirus infected insect cells using Z-Phe-Arg-AMC as substrate preincubated for 15 mins followed by substrate addition and measured for 60 mins by fluorescence assay; conditions: time 75.0 min
T2 sequence (whole entry): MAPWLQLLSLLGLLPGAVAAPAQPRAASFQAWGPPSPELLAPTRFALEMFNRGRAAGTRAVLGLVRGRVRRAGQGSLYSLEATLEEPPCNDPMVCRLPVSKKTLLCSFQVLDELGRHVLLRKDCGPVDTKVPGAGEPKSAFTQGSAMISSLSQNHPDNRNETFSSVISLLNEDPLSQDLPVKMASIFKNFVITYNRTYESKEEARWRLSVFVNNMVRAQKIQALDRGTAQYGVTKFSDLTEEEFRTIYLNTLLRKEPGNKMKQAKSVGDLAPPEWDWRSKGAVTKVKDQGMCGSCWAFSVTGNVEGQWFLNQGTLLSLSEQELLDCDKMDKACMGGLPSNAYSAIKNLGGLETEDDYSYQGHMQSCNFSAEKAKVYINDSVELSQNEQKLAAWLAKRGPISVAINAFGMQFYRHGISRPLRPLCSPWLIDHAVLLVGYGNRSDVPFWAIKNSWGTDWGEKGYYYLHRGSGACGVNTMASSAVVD

Trypsin (Homo sapiens) = Trypsin (Homo sapiens) (UniProt P07477+P07478+P35030); assay: Inhibition of human trypsin using Boc-Gln-Ala-Arg-AMC as substrate preincubated for 15 mins followed by substrate addition and measured for 60 mins by fluorescence assay; type: protein assay; conditions: time 75.0 min
[12] = molecular target: Hemagglutinin (Influenza A virus (A/Puerto Rico/8/1934(H1N1))) (UniProt P03452); assay: Inhibition of Influenza A virus (A/PR 8/34 (H1N1)) hemagglutinin infected in MDCK cells assessed as reduction in virus binding to cell surface at 200 uM relative to control; type: cell-based
Chain of Hemagglutinin (Influenza A virus (A/Puerto Rico/8/1934(H1N1))) (P03452 whole entry): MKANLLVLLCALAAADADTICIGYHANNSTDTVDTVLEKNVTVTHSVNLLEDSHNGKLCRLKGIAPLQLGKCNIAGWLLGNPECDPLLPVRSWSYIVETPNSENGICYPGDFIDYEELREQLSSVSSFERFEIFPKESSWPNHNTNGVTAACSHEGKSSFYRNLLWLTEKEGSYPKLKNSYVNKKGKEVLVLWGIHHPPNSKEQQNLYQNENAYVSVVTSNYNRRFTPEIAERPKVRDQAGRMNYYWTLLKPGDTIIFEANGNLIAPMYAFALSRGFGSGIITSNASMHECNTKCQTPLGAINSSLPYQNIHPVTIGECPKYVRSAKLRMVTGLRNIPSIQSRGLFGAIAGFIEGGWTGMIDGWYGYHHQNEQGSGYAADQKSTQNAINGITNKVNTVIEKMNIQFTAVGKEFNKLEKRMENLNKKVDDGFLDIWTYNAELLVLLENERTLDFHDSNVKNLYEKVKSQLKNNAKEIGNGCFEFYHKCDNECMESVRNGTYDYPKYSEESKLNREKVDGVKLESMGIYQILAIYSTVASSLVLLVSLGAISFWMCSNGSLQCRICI

Influenza A virus [13] = assay: Antiviral activity against Influenza A virus (A/PR 8/34 (H1N1)) clone 2 infected in MDCK cells assessed as reduction in virus-induced cytopathic effect measured after 72 hrs by microscopic analysis; type: functional, organism-based; conditions: A/Puerto Rico/8/1934(H1N1)
[14] = molecular target: Hemagglutinin (Influenza A virus (A/Puerto Rico/8/1934(H1N1))) (UniProt P03452); assay: Inhibition of Influenza A virus (A/PR 8/34 (H1N1)) hemagglutinin infected in MDCK cells assessed as reduction in virus binding to cell surface; type: cell-based
Influenza B virus [15] = assay: Antiviral activity against Influenza B virus B/HK/5/72 infected in MDCK cells assessed as reduction in virus induced cytopathic effect after 72 hrs by MTS assay; type: functional, organism-based
[16] = Cytotoxicity against HELF cells; type: cell-based; conditions: human
[17] = Cytotoxicity against human HeLa cells; type: cell-based
Influenza A virus (H1N1) [18] = assay: Antiviral activity against Influenza A virus (H1N1) A/Virginia/ATCC3/2009 infected in MDCK cells assessed as reduction in virus-induced cytopathic effect measured after 72 hrs by microscopic analysis; type: functional, organism-based
Influenza A virus [19] = assay: Antiviral activity against Influenza A virus (A/PR 8/34 (H1N1)) clone 2 infected in MDCK cells assessed as reduction in virus-induced cytopathic effect measured after 72 hrs by MTS assay; type: functional, organism-based; conditions: A/Puerto Rico/8/1934(H1N1)
[20] = molecular target: Hemagglutinin (Influenza A virus (A/Puerto Rico/8/1934(H1N1))) (UniProt P03452); assay: Inhibition of Influenza A virus (A/PR 8/34 (H1N1)) hemagglutinin transfected in human HeLa cells assessed as reduction in low pH-indued polykaryon formation preincubated for 15 mins followed by pH 5.2 buffer addition and measured after 5 mins by giemsa staining based microscopic analysis; type: cell-based; conditions: time 20.0 min
Influenza A virus H3N2 [21] = assay: Antiviral activity against Influenza A virus H3N2 A/HK/7/87 infected in MDCK cells assessed as reduction in virus induced cytopathic effect after 72 hrs by microscopy based method; type: functional, organism-based
[22] = Selectivity index, ratio of MCC for HELF cells to EC50 for antiviral activity against Influenza A virus (A/PR 8/34 (H1N1)) infected in human Calu-3 cells; type: toxicity, cell-based; conditions: HELF cells (MCC) and Calu-3 cells (EC50), read-out: Selectivity Index
[23] = Selectivity index, ratio of MCC for human HeLa cells to EC50 for antiviral activity against Influenza A virus (A/PR 8/34 (H1N1)) infected in human Calu-3 cells; type: toxicity, cell-based; conditions: HeLa cells (MCC) and Calu-3 cells (EC50), read-out: Selectivity Index
Influenza B virus [24] = assay: Antiviral activity against Influenza B virus B/HK/5/72 infected in MDCK cells assessed as reduction in virus induced cytopathic effect after 72 hrs by microscopy based method; type: functional, organism-based
Influenza A virus [25] = assay: Antiviral activity against Influenza A virus (A/PR 8/34 (H1N1)) infected in human Calu-3 cells assessed as reduction in virus-induced cytopathic effect measured after 72 hrs by microscopic analysis; type: functional, organism-based; conditions: A/Puerto Rico/8/1934(H1N1), Calu-3, 72 h
Influenza A virus [26] = assay: Antiviral activity against Influenza A virus (A/PR 8/34 (H1N1)) infected in human Calu-3 cells assessed as reduction in virus-induced cytopathic effect measured after 72 hrs by MTS assay; type: functional, organism-based; conditions: A/Puerto Rico/8/1934(H1N1), Calu-3, 72 h
Influenza A virus H3N2 [27] = assay: Antiviral activity against Influenza A virus H3N2 A/HK/7/87 infected in MDCK cells assessed as reduction in virus induced cytopathic effect after 72 hrs by MTS assay; type: functional, organism-based
Influenza A virus [28] = assay: Antiviral activity against Influenza A virus (A/PR 8/34 (H1N1)) infected in MDCK cells assessed as reduction in viral RNA synthesis at 50 uM treated at 1 hr post-infection by RT-qPCR analysis; type: functional, organism-based; conditions: A/Puerto Rico/8/1934(H1N1)
[29] = molecular target: Hemagglutinin (Influenza A virus (A/Puerto Rico/8/1934(H1N1))) (UniProt P03452); assay: Inhibition of Influenza A virus (A/PR 8/34 (H1N1)) hemagglutinin transfected in human HeLa cells assessed as reduction in low pH-indued polykaryon formation at 100 uM preincubated for 15 mins followed by pH 5.2 buffer addition and measured after 5 mins by giemsa staining based microscopic analysis; type: cell-based; conditions: time 20.0 min
Influenza A virus (H1N1) [30] = assay: Antiviral activity against Influenza A virus (H1N1) A/Virginia/ATCC3/2009 infected in MDCK cells assessed as reduction in virus-induced cytopathic effect measured after 72 hrs by MTS assay; type: functional, organism-based
Influenza A virus [31] = assay: Antiviral activity against Influenza A virus (A/PR 8/34 (H1N1)) infected in MDCK cells assessed as reduction in viral RNA synthesis at 20 uM treated at 1 hr post-infection by RT-qPCR analysis; type: functional, organism-based; conditions: A/Puerto Rico/8/1934(H1N1)

| SMILES | EC50 (Influenza A virus [1]) [µM] | EC50 (Influenza A virus [2]) [µM] | EC50 (Influenza A virus [3]) [µM] | CC50 at 72 h [4] [µM] | EC50 (Influenza A virus [5]) [µM] | MCC at 72 h [6] [µM] | inhibition [7] | inhibition [8] | selectivity ratio [9] | inhibition [10] | inhibition [11] | inhibition (Trypsin (Homo sapiens)) | further results |
| --- | --- | --- | --- | --- | --- | --- | --- | --- | --- | --- | --- | --- | --- |
| NC(=O)c1ncn([C@@H]2O[C@H](CO)[C@@H](O)[C@H]2O)n1 [RIBAVIRIN] | 31 | 20 | 11 | 58 | 22 | 100 |  |  |  |  |  |  |  |
| CC(C)(C)OC(=O)N[C@@H](CC(N)=O)C(=O)N(Cc1ccc(F)cc1)C1(C(=O)NCc2ccccc2)CCN(Cc2ccccc2)CC1 | 2.1 |  |  | > 100 | 1.8 | > 100 | inactive | inactive | 26 | inactive | inactive | inactive |  |
| CCCCCCCCCCCCCCCCCCCCCCOCC(C)(COCCCCCCCCCCCCCCCCCCCCCC)CO[C@]1(C(=O)O)C[C@H](OS(=O)(=O)O)[C@@H](NC(C)=O)[C@H]([C@H](O)[C@@H](COS(=O)(=O)O)OS(=O)(=O)O)O1 |  |  |  |  |  |  |  |  |  |  |  |  | inhibition [12]: 96% |
| COC(=O)C[C@H](NC(=O)OC(C)(C)C)C(=O)N(Cc1ccc(F)cc1)C1(C(=O)NCc2ccccc2)CCN(Cc2ccccc2)CC1 | 2.7 | > 100 | > 100 | > 100 | 1.9 | > 100 | inactive | inactive | 18 | inactive | inactive | inactive | EC50 (Influenza A virus [13]): > 100 µM; inhibition [14]: inactive; Activity (Influenza B virus [15]): inactive; MCC [16]: 100 µM; MCC [17]: 100 µM; Activity (Influenza A virus (H1N1) [18]): inactive; EC50 (Influenza A virus [19]): > 100 µM; inhibition [20]: Dose-dependent effect; Activity (Influenza A virus H3N2 [21]): inactive; selectivity ratio [22]: ≥ 30; selectivity ratio [23]: ≥ 30; Activity (Influenza B virus [24]): inactive; EC50 (Influenza A virus [25]): 1.8 µM; EC50 (Influenza A virus [26]): 3 µM; Activity (Influenza A virus H3N2 [27]): inactive; Activity (Influenza A virus [28]): Active; inhibition [29]: 100%; Activity (Influenza A virus (H1N1) [30]): inactive |
| CCN(CC)CCCC(C)Nc1ccnc2cc(Cl)ccc12 (stereo not drawn) |  |  |  |  |  |  |  |  |  |  |  |  | Activity (Influenza A virus [31]): Active |
